# How the values were obtained:
# Assay in all cases: relative viability (nuclei count vs DMSO), 5 days (fraction); higher = more cells survive
# [1] = tested on: NCI-H2085
# Method in brief: (§1)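 Dosing by pin tool came one day after lung cancer cell lines were seeded in 1536-well plates, using either one drug or a fixed anchor-drug dose plus five library-drug doses (not always all listed) in √10 steps. After 5 days, nuclei were counted on 4× images. Relative viability is treated-well nuclei count divided by vehicle-well nuclei count, and values are medians of duplicate plates.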
# [2] = tested on: H3255
# Method in brief: as §1
# [3] = tested on: COR-L23
# Method in brief: as §1
# [4] = tested on: NCI-H1563
# Method in brief: as §1
# [5] = tested on: HCC-827
# Method in brief: as §1
# [6] = tested on: NCI-H2405
# Method in brief: as §1
# [7] = tested on: NCI-H650
# Method in brief: as §1
# [8] = tested on: EPLC-272H
# Method in brief: as §1
# [9] = tested on: NCI-H2087
# Method in brief: as §1
# [10] = tested on: NCI-H2023
# Method in brief: as §1
# [11] = tested on: NCI-H520
# Method in brief: as §1
# [12] = tested on: ChaGo-K-1
# Method in brief: as §1
# [13] = tested on: LCLC-103H
# Method in brief: as §1
# [14] = tested on: EMC-BAC-2
# Method in brief: as §1
# [15] = tested on: NCI-H838
# Method in brief: as §1
# [16] = tested on: HCC-44
# Method in brief: as §1
# [17] = tested on: NCI-H1651
# Method in brief: as §1
# [18] = tested on: LU99A
# Method in brief: as §1
smiles,measurement,setting,value
Cc1sc2c(c1C)C(c1ccc(Cl)cc1)=N[C@@H](CC(=O)OC(C)(C)C)c1nnc(C)n1-2 [JQ1] + CC(C)C[C@H](NC(=O)[C@H](Cc1ccccc1)NC(=O)c1cnccn1)B(O)O [Bortezomib] (partner 0.002 µM),relative viability,[1]; first compound 0.04 µM,0.999
same,relative viability,[1]; first compound 0.1265 µM,0.861
same,relative viability,[1]; first compound 0.4 µM,0.893
same,relative viability,[1]; first compound 1.265 µM,0.61
same,relative viability,[1]; first compound 4 µM,0.564
same,relative viability,[2]; first compound 0.04 µM,0.628
same,relative viability,[2]; first compound 0.1265 µM,0.553
same,relative viability,[2]; first compound 0.4 µM,0.747
same,relative viability,[2]; first compound 1.265 µM,0.306
same,relative viability,[2]; first compound 4 µM,0.278
same,relative viability,[3]; first compound 0.04 µM,0.981
same,relative viability,[3]; first compound 0.1265 µM,0.673
same,relative viability,[3]; first compound 0.4 µM,0.792
same,relative viability,[3]; first compound 1.265 µM,0.579
same,relative viability,[3]; first compound 4 µM,0.17
same,relative viability,[4]; first compound 0.04 µM,0.909
same,relative viability,[4]; first compound 0.1265 µM,0.619
same,relative viability,[4]; first compound 0.4 µM,0.642
same,relative viability,[4]; first compound 1.265 µM,0.544
same,relative viability,[4]; first compound 4 µM,0.621
same,relative viability,[5]; first compound 0.04 µM,0.929
same,relative viability,[5]; first compound 0.4 µM,0.743
same,relative viability,[5]; first compound 1.265 µM,1.25
same,relative viability,[5]; first compound 4 µM,0.928
same,relative viability,[6]; first compound 0.04 µM,1.07
same,relative viability,[6]; first compound 0.1265 µM,0.628
same,relative viability,[6]; first compound 0.4 µM,1.03
same,relative viability,[6]; first compound 1.265 µM,0.827
same,relative viability,[6]; first compound 4 µM,0.678
same,relative viability,[7]; first compound 0.04 µM,0.742
same,relative viability,[7]; first compound 0.1265 µM,0.351
same,relative viability,[7]; first compound 0.4 µM,0.432
same,relative viability,[7]; first compound 1.265 µM,0.183
same,relative viability,[7]; first compound 4 µM,0.184
same,relative viability,[8]; first compound 0.04 µM,0.915
same,relative viability,[8]; first compound 0.1265 µM,0.911
same,relative viability,[8]; first compound 0.4 µM,0.989
same,relative viability,[8]; first compound 1.265 µM,0.414
same,relative viability,[8]; first compound 4 µM,0.367
same,relative viability,[9]; first compound 0.04 µM,0.832
same,relative viability,[9]; first compound 0.4 µM,0.943
same,relative viability,[9]; first compound 1.265 µM,0.553
same,relative viability,[9]; first compound 4 µM,0.416
same,relative viability,[10]; first compound 0.04 µM,0.966
same,relative viability,[10]; first compound 0.1265 µM,0.57
same,relative viability,[10]; first compound 0.4 µM,0.437
same,relative viability,[10]; first compound 1.265 µM,0.263
same,relative viability,[10]; first compound 4 µM,0.193
same,relative viability,[11]; first compound 0.04 µM,0.527
same,relative viability,[11]; first compound 0.1265 µM,0.242
same,relative viability,[11]; first compound 0.4 µM,0.157
same,relative viability,[11]; first compound 1.265 µM,0.167
same,relative viability,[11]; first compound 4 µM,0.136
same,relative viability,[12]; first compound 0.04 µM,1.09
same,relative viability,[12]; first compound 0.4 µM,1.06
same,relative viability,[12]; first compound 1.265 µM,0.493
same,relative viability,[12]; first compound 4 µM,0.373
same,relative viability,[13]; first compound 0.04 µM,1.04
same,relative viability,[13]; first compound 0.1265 µM,1.01
same,relative viability,[13]; first compound 0.4 µM,1.06
same,relative viability,[13]; first compound 1.265 µM,0.557
same,relative viability,[13]; first compound 4 µM,0.439
same,relative viability,[14]; first compound 0.04 µM,1.09
same,relative viability,[14]; first compound 0.1265 µM,0.961
same,relative viability,[14]; first compound 0.4 µM,0.91
same,relative viability,[14]; first compound 1.265 µM,0.621
same,relative viability,[14]; first compound 4 µM,0.544
same,relative viability,[15]; first compound 0.04 µM,0.69
same,relative viability,[15]; first compound 0.1265 µM,0.426
same,relative viability,[15]; first compound 0.4 µM,0.31
same,relative viability,[15]; first compound 1.265 µM,0.208
same,relative viability,[15]; first compound 4 µM,0.154
same,relative viability,[16]; first compound 0.04 µM,0.941
same,relative viability,[16]; first compound 0.1265 µM,0.702
same,relative viability,[16]; first compound 0.4 µM,0.744
same,relative viability,[16]; first compound 1.265 µM,0.461
same,relative viability,[16]; first compound 4 µM,0.224
same,relative viability,[17]; first compound 0.04 µM,0.919
same,relative viability,[17]; first compound 0.1265 µM,0.781
same,relative viability,[17]; first compound 0.4 µM,0.842
same,relative viability,[17]; first compound 1.265 µM,0.9
same,relative viability,[17]; first compound 4 µM,0.635
same,relative viability,[18]; first compound 0.04 µM,1.32
same,relative viability,[18]; first compound 0.1265 µM,0.8
same,relative viability,[18]; first compound 0.4 µM,0.802
same,relative viability,[18]; first compound 1.265 µM,0.426
same,relative viability,[18]; first compound 4 µM,0.265

# From the supplement of paper PMC10307832
